For data set [1], the system named is CD8 T cells. Briefly: Cytometric bead array of cytokine secretion by re-stimulated pMel-1 CD8 T cells. Type of data set: cell-based, mouse. As to conditions: for IL-2 secretion: re-stimulated CD8 T cells; for IFNγ secretion with further stimulations / TNF secretion with further stimulations: supernatant after 24 hours, CBA. The procedure:
Following the same activation protocol mentioned above, the pMel-1 gp100-specific CD8 T cells were harvested on day 7 after the first and second stimulation. The viable cells (trypan blue negative) were then counted and co-incubated (at 1:1 ratio) with 1 μM/ml gp10025-33 pulsated irradiated splenocytes (4000 Rads) for 24 hours using the same culture conditions. The supernatant was collected and the level of IL-2, TNF and IFN-γ was assessed using the mouse Th1/Th2/Th17 Cytokine Kit BD™ Cytometric Bead Array (CBA) kit. The data was collected using an LSRII SORP with HTS flow cytometer (BD Biosciences, San Jose, Calif.), and analyzed using the FCAP Array Software v3.0 (BD Biosciences, San Jose, Calif.).

Data set [2] concerns CD8 T cells. Briefly: Proliferation assay (VCT dye dilution / expansion) of gp100-stimulated pMel-1 CD8 T cells. Particulars: for proliferation of CD8 T cells (VCT dilution): day 3 after first stimulation; for expansion of CD8 T cells with further stimulations: re-stimulation days 7, 14, 21, normalized to non-treated control. Type of data set: cell-based, mouse.
Method: Prior to their stimulation (day 0), cells were labeled with 5 μM Violet Cell Trace (VCT) proliferation dye (Life Technologies, Invitrogen, Carlsbad, Calif.) following the manufacturers' instructions. Samples were then evaluated for CD8 T cell expansion via VCT dye dilution (day 3) using an LSRII SORP with HTS Flow Cytometer (BD Biosciences, San Jose, Calif.). The data were analyzed using FlowJo 9 or 10 (Tree Star).
Data set [3] has as its system CD8 T cells. Briefly: Phenotyping of gp100-stimulated pMel-1 CD8 T cells by flow cytometry. In kind it is cell-based, mouse. Particulars: for percentage of naïve cells (CD62LhiCD44lo) versus non-treated: after 3 days of stimulation; for up-regulation of exhaustion marker KLRG-1 in CD8 T cells: after the second and third stimulations; for CD62L expression in CD8 T cells / CD127 expression in CD8 T cells: day 3 and/or day 7 after each stimulation with gp100; for reservoir of TCM cells after repeated stimulation: day 7 after each stimulation, MK-2206 0.67 μM, Akt 1/2 inhibitor 2.2 μM; for percentage of CD8 T cells with TCM phenotype (CD62LhiCD44hi): pMel-1 splenocytes, gp100 25-33 1 μM, representative example, gated viable CD8+Vβ13+. As for the experimental part:
Tumor antigen-specific CD8 T cells Unfractionated splenocytes from pMel-1 mice were homogenized and stimulated in vitro by gp10025-33 peptide at a 1 μM/ml concentration (day 0). Cells were cultured in RPMI 1640 (Lonza, Allendale, N.J.) supplemented with 10% FBS, penicillin (100 U/mL), streptomycin ([…]), 0.1% β-mercaptoethanol (Life Technologies, Invitrogen, Carlsbad, Calif.) and IL-2 (100 U/ml) (Peprotech, Rocky Hill, N.J.) at 37° C. with 5% CO2. […]. The concentration of the inhibitors was maintained throughout the culture by changing the media every 48-72 hours.
On Days 7, 14 and 21, cells were re-stimulated with gp10025-33 peptide at a 1 μM/ml concentration using feeder cells (irradiated WT splenocytes, 4000 Rads) at 1:1 ratio using the same culture conditions.
To assess the phenotype of the T cells, the cultured cells were harvested and analyzed on days 3, 7, 14 and 21. The cells were stained with APC-Cy7 labeled anti-CD8, FITC labeled anti-Vβ13, PE labeled anti-CD62L, APC labeled anti-CD44, PE-CF594 labeled anti-CD127, APC labeled anti-KLRG-1 in addition to the viability stain 7AAD (BD Biosciences, San Jose, Calif.). The same APC-Cy7 labeled anti-CD8 was used for sorting the cells using the FACS ARIA II (BD Biosciences, San Jose, Calif.).
For proliferation and phenotyping, the analyses were performed on CD8 T cells specific for the gp100 antigen and were gated on viable (7AAD−), Vβ13+CD8+ T cells. For WT and KO cells, the cells were gated on viable (7AAD−), CD8+ T cells.
(In general: A flow cytometer gives signals particle by particle.)

Data set [4] has as its system CD8 T cells. Kind of data set: Phenotype of anti-CD3/anti-CD28 stimulated CD8 T cells from WT and Akt KO mice. In kind it is cell-based, mouse. As to conditions: day 7; anti-CD3 (1 ng/ml) + anti-CD28; MK-2206 0.67 μM, Akt 1/2 inhibitor 2.2 μM. As for the experimental part: The cells were then stimulated using feeder cells (irradiated WT splenocytes, 4000 Rads) at 1:1 ratio (day 0) using TCR stimulation ([…], BD Biosciences, San Jose, Calif.) and co-stimulation (anti-CD28 antibody 2.5 μg/ml BD Biosciences, San Jose, Calif.) in the presence of 100 U/ml IL-2 (Peprotech, Rocky Hill, N.J.). […] Cells were cultured in the same conditions described above. To assess the phenotype of the T cells, the cultured cells were harvested and analyzed on days 3, 7, 14 and 21. The cells were stained with APC-Cy7 labeled anti-CD8, FITC labeled anti-Vβ13, PE labeled anti-CD62L, APC labeled anti-CD44, PE-CF594 labeled anti-CD127, APC labeled anti-KLRG-1 in addition to the viability stain 7AAD (BD Biosciences, San Jose, Calif.). The same APC-Cy7 labeled anti-CD8 was used for sorting the cells using the FACS ARIA II (BD Biosciences, San Jose, Calif.). For proliferation and phenotyping, the analyses were performed on CD8 T cells specific for the gp100 antigen and were gated on viable (7AAD−), Vβ13+CD8+ T cells. For WT and KO cells, the cells were gated on viable (7AAD−), CD8+ T cells.

The conditions of data set [5]: intermittent dosing schedule of 480 mg twice a day; cited from earlier work.
The test system of data set [6] is 250 other protein kinases. As to conditions: cited from earlier work.
For data set [7] the following is noted: cited from earlier work.

Data on three compounds can be found in patent publication US20180271870A1, “Compositions and Methods for Immune Therapy” (Augusta University Research Institute, Inc., priority 2014, published 2018).

Take `O.O=C(O)C(F)(F)F.O=c1[nH]c2ccccc2n1C1CCN(Cc2ccc(-c3nc4cc5[nH]cnc5cc4nc3-c3ccccc3)cc2)CC1` [Akt 1/2 inhibitor, 1,3-Dihydro-1-(1-((4-(6-phenyl-1H-imidazo[4,5-g]quinoxalin-7-yl)phenyl)methyl)-4-piperidinyl)-2H-benzimidazol-2-one trifluoroacetate salt hydrate]: in the data set with CD8 T cells [1], the IL-2 secretion entry was “high secretion levels”, the “IFNγ secretion with further stimulations” value was “preserved high levels” and the “TNF secretion with further stimulations” value is recorded as “preserved high levels”. In addition, in the data set with CD8 T cells [2], the “proliferation of CD8 T cells (VCT dilution)” value is reported as “inhibited in a dose-dependent manner” and the “expansion of CD8 T cells with further stimulations” value (“expansion of CD8 T cells” for short) is on record as “significantly enhanced”. Besides, in the data set on CD8 T cells [3], the “percentage of naïve cells (CD62LhiCD44lo) versus non-treated” value was “higher percentage”, the “up-regulation of exhaustion marker KLRG-1 in CD8 T cells” value (“up-regulation” for short) is on record as “mitigates the up-regulation”, the “CD62L expression in CD8 T cells” value is “maintains a high level” and the “CD127 expression in CD8 T cells” value was “maintains a high level”. Moreover, in the data set on CD8 T cells [3], the “reservoir of TCM cells after repeated stimulation” value is listed as “a high percentage was preserved” and the “percentage of CD8 T cells with TCM phenotype (CD62LhiCD44hi)” value (“percentage of CD8 T cells” below) is 76%. Also, in the data set with CD8 T cells [4], the “TCM cells in CD8 T cells from Akt1 KO mice” value is listed as “more TCM cells”, the “TCM cells in CD8 T cells from Akt2 KO mice” value is reported as “maintains a significantly higher percentage of TCM cells”, the “TCM cells in CD8 T cells from Akt3 KO mice” value is on record as “maintains a significantly higher percentage of TCM cells” and the “phenotype of CD8 T cells from WT mice” value is reported as “consist mainly of TCM cells”.
In the case of `NC1(C(=O)N[C@@H](CCO)c2ccc(Cl)cc2)CCN(c2ncnc3[nH]ccc23)CC1` [AZD5363], the “expansion of CD8 T cells” value in the data set with CD8 T cells [2] was “enhanced the proliferation”. Further, in the data set on CD8 T cells [3], the “up-regulation” value is recorded as “inhibits the up-regulation”, the “CD62L expression in CD8 T cells” value is given as “maintains a high level”, the “CD127 expression in CD8 T cells” value is reported as “maintains a high level” and the “percentage of CD8 T cells” value is reported as 91%. Moreover, the tolerability result in data set [5] is “generally well tolerated”.
Regarding `NC1(c2ccc(-c3nc4ccn5c(=O)[nH]nc5c4cc3-c3ccccc3)cc2)CCC1` [MK-2206], in the data set with CD8 T cells [1] (24 hours after re-stimulation), the “IFN-γ production after the second stimulation versus non-treated” value was “high and comparable levels”; the “IFN-γ secretion after the third stimulation versus non-treated” value is listed as “maintained at a significantly higher level”; the “TNF production after the second stimulation versus non-treated” value was “high and comparable levels”; the “TNF secretion after the third stimulation versus non-treated” value was “maintained at a significantly higher level”. Besides, in the data set with CD8 T cells [1], the IL-2 secretion entry is reported as “significantly higher levels”, the “IFNγ secretion with further stimulations” value is on record as “maintain their ability to secrete IFNγ” and the “TNF secretion with further stimulations” value is “significantly higher levels”. Besides, in the data set with CD8 T cells [2], the “proliferation of CD8 T cells (VCT dilution)” value was “inhibited in a dose-dependent manner” and the “expansion of CD8 T cells” value was “expand at a significantly high rate”. Further, the “inhibitory activities against 250 other protein kinases” value in data set [6] is on record as “no inhibitory activities”. In the data set with CD8 T cells [3], the “percentage of naïve cells (CD62LhiCD44lo) versus non-treated” value was “higher percentage”, the “up-regulation” value was “inhibits the up-regulation”, the “CD62L expression in CD8 T cells” value was “maintains a high level” and the “CD127 expression in CD8 T cells” value was “maintains high levels”. For the same compound, in the data set with CD8 T cells [3], the “reservoir of TCM cells after repeated stimulation” value is “a high percentage was preserved” and the “percentage of CD8 T cells” value is listed as 65%. In the data set on CD8 T cells [4], the “TCM cells in CD8 T cells from Akt1 KO mice” value is recorded as “more TCM cells”, the “TCM cells in CD8 T cells from Akt2 KO mice” value was “maintains a significantly higher percentage of TCM cells”, the “TCM cells in CD8 T cells from Akt3 KO mice” value is on record as “maintains a significantly higher percentage of TCM cells” and the “phenotype of CD8 T cells from WT mice” value is on record as “consist mainly of TCM cells”. The dose-limiting toxicities result in data set [7] (30, 60, 75 or 90 mg on alternate days) is “skin rash and stomatitis”. The MTD in data set [7] (oral, alternate days, patients with advanced solid tumors) is on record as 60 mg.
